We go through 25 molecules from ChEMBL document CHEMBL3734730, “Discovery of novel 2-benzylisoquinolin-1(2H)-ones as potent vasodilative agents” (Bioorg Med Chem Lett, 2015).

The source made the active and inactive calls. The calls are words filed in the database; no cut-off is given here.

Assay [1] in a line: Vasodilative activity in isolated Sprague-Dawley rat Superior mesenteric arterial ring assessed as reduction in KCl-induced contraction by wire myograph method relative to control. It counts as functional.
The nature of assay [2]: Vasodilative activity in isolated Sprague-Dawley rat Superior mesenteric arterial ring assessed as reduction in KCl-induced contraction at 10^-5 by wire myograph method. The assay is classed as functional. On the set-up: scale not given: the % may be the effect or the level left.
The nature of assay [3]: Vasodilative activity in isolated Sprague-Dawley rat mesenteric arterial ring assessed as reduction in phenylephrine-induced contraction at 10 uM pretreated for 30 mins followed by addition of 10^-8 to 10^-4 M phenylephrine by wire myograph method relative to control. The assay is classed as functional. The settings on record: Mesenteric artery.
Assay [4] has as its system Rattus norvegicus. The experiment in a line: Antihypertensive activity in SHR rat assessed as reduced systolic pressure at 1 mg/kg, po after 2 hrs by tail-cuff plethysmography (reference value: 2 mmHg). It counts as functional, Blood.
Assay [5] has as its system Rattus norvegicus. As to the kind of experiment: Antihypertensive activity in SHR rat assessed as reduced systolic pressure at 2 mg/kg, po after 2 hrs by tail-cuff plethysmography (reference value: 2 mmHg). The assay is classed as functional, Blood.
Assay [6] has as its system Rattus norvegicus. As to the kind of experiment: Antihypertensive activity in SHR rat assessed as reduced systolic pressure at 4 mg/kg, po after 2 hrs by tail-cuff plethysmography (reference value: 2 mmHg). The assay is classed as functional, Blood.
The test system of assay [7] is Rattus norvegicus. The experiment in a line: Antihypertensive activity in SHR rat assessed as reduced systolic pressure at 8 mg/kg, po after 2 hrs by tail-cuff plethysmography (reference value: 2 mmHg). It counts as functional, Blood.
The subject of assay [8] is Rattus norvegicus. As to the kind of experiment: Antihypertensive activity in SHR rat assessed as reduced diastolic pressure at 1 mg/kg, po after 2 hrs by tail-cuff plethysmography (reference value: 2 mmHg). It counts as functional, Blood.
For assay [9], the system named is Rattus norvegicus. The experiment in a line: Antihypertensive activity in SHR rat assessed as reduced diastolic pressure at 2 mg/kg, po after 2 hrs by tail-cuff plethysmography (reference value: 2 mmHg). It counts as functional, Blood.
The test system of assay [10] is Rattus norvegicus. The experiment in a line: Antihypertensive activity in SHR rat assessed as reduced diastolic pressure at 4 mg/kg, po after 2 hrs by tail-cuff plethysmography (reference value: 2 mmHg). The assay is classed as functional, Blood.
Assay [11] relates to Rattus norvegicus. The experiment in a line: Antihypertensive activity in SHR rat assessed as reduced diastolic pressure at 8 mg/kg, po after 2 hrs by tail-cuff plethysmography (reference value: 2 mmHg). The assay is classed as functional, Blood.
Assay [12] has as its system Rattus norvegicus. The experiment in a line: Antihypertensive activity in po-dosed SHR rat assessed as reduced diastolic pressure after 2 hrs by tail-cuff plethysmography. It counts as functional, organism-based. The note with it: Blood.
Assay [13] deals with Rattus norvegicus. The experiment in a line: Antihypertensive activity in po-dosed SHR rat assessed as reduced systolic pressure after 2 hrs by tail-cuff plethysmography. It counts as functional, organism-based. The note with it: Blood.
Assay [14] is described as follows: Vasodilative activity in isolated Sprague-Dawley rat second-order mesenteric arterial ring assessed as reduction in KCl-induced contraction by wire myograph method relative to control. The assay is classed as functional. The note with it: Mesenteric artery.
The nature of assay [15]: Vasodilative activity in isolated Sprague-Dawley rat third-order mesenteric arterial ring assessed as reduction in KCl-induced contraction by wire myograph method relative to control. The assay is classed as functional. The note with it: Mesenteric artery.
Assay [16] is described as follows: Vasodilative activity in isolated Sprague-Dawley rat renal arterial ring assessed as reduction in KCl-induced contraction by wire myograph method relative to control. It counts as functional. The note with it: Renal artery.
Assay [17] is described as follows: Vasodilative activity in isolated Sprague-Dawley rat cerebral basilar arterial ring assessed as reduction in KCl-induced contraction by wire myograph method relative to control. The assay is classed as functional. The settings on record: Basilar artery.
The nature of assay [18]: Vasodilative activity in isolated Sprague-Dawley rat coronary artery assessed as reduction in KCl-induced contraction by wire myograph method relative to control. The assay is classed as functional, tissue-based.
The subject of assay [19] is Rattus norvegicus. As to the kind of experiment: Antihypertensive activity in SHR rat assessed as reduced systolic pressure at 4 mg/kg, po after 0.5 hrs by tail-cuff plethysmography. The assay is classed as functional.
Assay [20] concerns Rattus norvegicus. As to the kind of experiment: Antihypertensive activity in SHR rat assessed as reduced systolic pressure at 4 mg/kg, po after 1 hr by tail-cuff plethysmography. It counts as functional, Blood.
In assay [21] the test system is Rattus norvegicus. As to the kind of experiment: Antihypertensive activity in SHR rat assessed as reduced systolic pressure at 4 mg/kg, po after 5 hrs by tail-cuff plethysmography. It counts as functional, Blood.
Assay [22] deals with Rattus norvegicus. The experiment in a line: Antihypertensive activity in SHR rat assessed as reduced diastolic pressure at 4 mg/kg, po after 0.5 hrs by tail-cuff plethysmography. The assay is classed as functional, Blood.
Assay [23] relates to Rattus norvegicus. As to the kind of experiment: Antihypertensive activity in SHR rat assessed as reduced diastolic pressure at 4 mg/kg, po after 1 hr by tail-cuff plethysmography. It counts as functional.
The test system of assay [24] is Rattus norvegicus. As to the kind of experiment: Antihypertensive activity in SHR rat assessed as reduced diastolic pressure at 4 mg/kg, po after 4 hrs by tail-cuff plethysmography. It counts as functional.

What is called EC50 is the concentration needed to bring the measured effect to its halfway point. For `COc1cc(O)c2c(=O)n(Cc3ccc(OC)c(OC)c3)ccc2c1`, in assay [1], the EC50 is 501 nM and the Rmax stood at 91.6%. Besides, in assay [2], the Activity was determined as 81.3%.

As to `COc1cc2ccn(Cc3cccc([N+](=O)[O-])c3)c(=O)c2cc1OC`, in [1], the EC50 was 2000 nM and the Rmax came to 67.4%. Further, the Activity in [2] worked out at 57.4%.

Consider `COc1cc2ccn(Cc3cccc(F)c3)c(=O)c2cc1OC`, for which, in assay [1], the EC50 was 3980 nM and the Rmax came to 54.2%. The Activity in assay [2] is 54%.

For the molecule `O=C(O)c1cccc(Cn2ccc3cc4c(cc3c2=O)OCO4)c1`, in assay [2], the Activity was found to be 34.2%.

Consider `COc1ccc(Cn2ccc3cc(OC)ccc3c2=O)cc1`, for which, in assay [1], the EC50 is 794 nM and the Rmax worked out at 90.8%. Moreover, the Activity in [2] is 83.7%.

Take `COc1cc(Cn2ccc3cccc(OC)c3c2=O)cc(OC)c1OC`: the EC50 in [1] is 251 nM. Further, the Rmax in assay [1] worked out at 98.7%. Besides, the Activity in assay [2] amounted to 93.8%; in the assay with Rattus norvegicus [4] it was 3 mmHg; in the assay on Rattus norvegicus [5], 15 mmHg; in the assay on Rattus norvegicus [6] it was 34 mmHg; in the assay with Rattus norvegicus [7], 44 mmHg; in the assay on Rattus norvegicus [8], 1 mmHg. Further, the Activity in the assay on Rattus norvegicus [9] is 12 mmHg; with Rattus norvegicus [10] it was 39 mmHg; in the assay on Rattus norvegicus [11], 49 mmHg. Further, the inhibition result in assay [3] was “Active”. Besides, the inhibition result in the assay with Rattus norvegicus [12] and in the assay on Rattus norvegicus [13] was “Dose-dependent effect” in each case.

Regarding `CCOC(=O)C1=C(C)NC(C)=C(C(=O)OC)C1c1cccc([N+](=O)[O-])c1` (stereo not given) [NITRENDIPINE], in [1], the EC50 was 0.316 nM. For the same molecule, the Rmax in assay [1] turned out to be 99.8%. Further, the Activity is 99.9% in assay [2], 9 mmHg with Rattus norvegicus [5] and 5 mmHg in the assay with Rattus norvegicus [9].

`COc1cc2ccn(Cc3cc(OC)c(OC)c(OC)c3)c(=O)c2cc1OC`: in assay [1], the EC50 was 15800 nM and the Rmax stood at 73.1%. Also, the Activity in assay [2] turned out to be 48.4%.

`COC(=O)c1cccc(Cn2ccc3cc(OC)c(OC)cc3c2=O)c1`: in assay [2], the Activity was found to be 37.6%.

Turning to `COc1cc2ccn(Cc3cccc(N)c3)c(=O)c2cc1OC`, in [1], the EC50 is 5010 nM and the Rmax was 52.3%. Further, in assay [2], the Activity came out at 51%.

As for `COC(=O)c1cccc(Cn2ccc3cc4c(cc3c2=O)OCO4)c1`, in assay [1], the EC50 was 3980 nM and the Rmax is 51.4%. In addition, the Activity in assay [2] stood at 50.6%.

Take `COc1cc2ccn(Cc3ccc(Cl)c(Cl)c3)c(=O)c2cc1OC`: the Activity in assay [2] is 26.6%.

Consider `O=c1c2cc(O)ccc2ccn1Cc1ccccc1`, for which, in assay [1], the EC50 is 25100 nM and the Rmax was 60.6%. The Activity in [2] was determined as 48.5%.

In general, Emax refers to the size of the effect at its maximum, as opposed to the concentration needed. Regarding `COc1ccc(Cn2ccc3cccc(OC)c3c2=O)cc1`, the concentration for a half-maximal effect (EC50) in assay [1] was 200 nM; in [14] it was 20 nM; in assay [15] it was 126 nM; in assay [16] it was 631 nM; in assay [17], 398 nM; in assay [18] it was 2000 nM. For the same molecule, in [1], the Rmax was determined as 106%. The Activity in [2] is 96.3%; in the assay with Rattus norvegicus [4], 6 mmHg; in the assay on Rattus norvegicus [5], 14 mmHg; in the assay on Rattus norvegicus [6] it was 38 mmHg; with Rattus norvegicus [7], 46 mmHg; with Rattus norvegicus [8], 10 mmHg. Besides, the Activity with Rattus norvegicus [9] is 16 mmHg; in the assay with Rattus norvegicus [10], 44 mmHg; in the assay on Rattus norvegicus [11] it was 53 mmHg; with Rattus norvegicus [19], 4 mmHg; with Rattus norvegicus [20], 7 mmHg; in the assay with Rattus norvegicus [21], 6 mmHg. In addition, the Activity amounted to 0 mmHg in the assay on Rattus norvegicus [22], 8 mmHg with Rattus norvegicus [23] and 10 mmHg in the assay on Rattus norvegicus [24]. Further, the inhibition entry in assay [3] is “Active”. Also, the Emax in assay [14] is 95.4%; in [15] it was 99.9%; in assay [16], 122%; in assay [17] it was 103%; in assay [18] it was 107%. Besides, the inhibition entry in the assay with Rattus norvegicus [12] and in the assay with Rattus norvegicus [13] was “Dose-dependent effect” in each case.

`COc1cc2ccn(Cc3ccc(F)cc3)c(=O)c2cc1OC`: the Activity in assay [2] worked out at 35.2%.

Turning to `COc1cc2ccn(Cc3ccccc3)c(=O)c2cc1OC`, in assay [2], the Activity amounted to 42.3%.

As for `COc1ccc2c(=O)n(Cc3ccc(OC)c(OC)c3)ccc2c1`, in [1], the EC50 was 3160 nM and the Rmax is 84.7%. For the same molecule, in [2], the Activity came out at 59%.

Consider `COc1ccc2c(=O)n(Cc3cc(OC)c(OC)c(OC)c3)ccc2c1`, for which, in assay [1], the EC50 is 2000 nM and the Rmax turned out to be 84%. Also, the Activity in assay [2] worked out at 72%.

On to `O=c1c2ccc(O)cc2ccn1Cc1ccccc1`, for which, in assay [1], the EC50 is 3160 nM and the Rmax came to 74.2%. Moreover, in assay [2], the Activity turned out to be 64.3%.

For the molecule `COc1ccc2c(=O)n(Cc3ccccc3)ccc2c1`, in assay [1], the EC50 was 2000 nM and the Rmax was determined as 61.8%. The Activity in assay [2] was 60.1%.

Turning to `COc1cccc2ccn(Cc3ccccc3)c(=O)c12`, in [1], the EC50 was 2510 nM and the Rmax came to 71.3%. In addition, in assay [2], the Activity amounted to 63.2%.

Take `COc1cc(OC)c2c(=O)n(Cc3ccc(OC)c(OC)c3)ccc2c1`: in assay [1], the EC50 is 1000 nM and the Rmax is 76.4%. The Activity in assay [2] came to 66.8%.

For the molecule `COc1ccc2c(=O)n(Cc3ccc(OCc4ccc(F)cc4)c(OC)c3)ccc2c1`, in assay [1], the EC50 was 398 nM and the Rmax stood at 94.3%. Further, the Activity in assay [2] was determined as 82.4%.

Regarding `COc1cc(OC)c2c(=O)n(Cc3ccc(OCc4ccc(F)cc4)c(OC)c3)ccc2c1`, in [1], the EC50 was 501 nM and the Rmax stood at 75.3%. For the same molecule, the Activity in assay [2] was determined as 74.1%.

`COc1cc(OC)c2c(=O)n(Cc3cc(OC)c(OC)c(OC)c3)ccc2c1`: in assay [1], the EC50 is 6310 nM and the Rmax was 89.5%. For the same molecule, in assay [2], the Activity was found to be 53.1%.
